This is an account of results in patent US20250163047A1, “HETEROCYCLIC COMPOUNDS, COMPOSITIONS THEREOF, AND METHODS OF TREATMENT THEREWITH” (BeiGene, Ltd., priority 2022, published 2025).

One test concerns the target T1, Cbl (aa49-434) (Homo sapiens, UniProt P22681).
T1 construct: Cbl (aa49-434, in-house); made in house
T1 sequence (P22681 49-434): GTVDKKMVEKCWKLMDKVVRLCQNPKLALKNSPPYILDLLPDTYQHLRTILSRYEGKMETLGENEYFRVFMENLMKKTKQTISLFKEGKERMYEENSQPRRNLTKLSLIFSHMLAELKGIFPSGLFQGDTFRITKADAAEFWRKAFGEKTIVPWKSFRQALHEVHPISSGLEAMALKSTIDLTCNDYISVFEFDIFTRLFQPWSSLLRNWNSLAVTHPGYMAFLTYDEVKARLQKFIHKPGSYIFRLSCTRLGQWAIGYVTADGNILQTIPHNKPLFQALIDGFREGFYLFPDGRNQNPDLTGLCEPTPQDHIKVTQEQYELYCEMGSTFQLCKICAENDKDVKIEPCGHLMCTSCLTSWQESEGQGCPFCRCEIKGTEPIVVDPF
Nature of the test: Co-expressed Cbl with BirA biochemical assay (CBL/E2-Ub binding, HTRF). As to conditions: 0.6 nM Cbl co-expressed with BirA, read-out: co-express CBL/E2-Ub-binding assay IC50. The source says: (§1) The assay in the absence of a Cbl-b/Cbl inhibitor, where phosphorylation of Cbl-b/Cbl by the Src kinase allows UbcH5B-Ub to bind to Cbl-b/Cbl and brings the Bodipy-Fluorescein tagged ubiquitin in proximity to the streptavidin-terbium bound to the N-terminal biotinylated Avi-tagged Cbl-b/Cbl. […] The lack of a FRET signal indicates Cbl-b/Cbl is inhibited by the Cbl-b/Cbl inhibitor.
Background: In TR-FRET formats the signal depends on donor and acceptor labels being close together.

The next test concerns the target T2, Cbl-b (aa36-427) (Homo sapiens, UniProt Q13191).
T2 construct: Cbl-b (aa36-427, in-house); made in house
Put plainly: Co-expressed Cbl-b with BirA biochemical assay (CBLB/E2-Ub binding, HTRF).
Text: as §1

The mark [1] stands for this setting: 0.6 nM Cbl-b co-expressed with BirA, HTRF, read-out: co-express CBLB/E2-Ub-binding assay IC50.

Where two headings read alike, the source gives them in different places.

T2 sequence (Q13191 36-427): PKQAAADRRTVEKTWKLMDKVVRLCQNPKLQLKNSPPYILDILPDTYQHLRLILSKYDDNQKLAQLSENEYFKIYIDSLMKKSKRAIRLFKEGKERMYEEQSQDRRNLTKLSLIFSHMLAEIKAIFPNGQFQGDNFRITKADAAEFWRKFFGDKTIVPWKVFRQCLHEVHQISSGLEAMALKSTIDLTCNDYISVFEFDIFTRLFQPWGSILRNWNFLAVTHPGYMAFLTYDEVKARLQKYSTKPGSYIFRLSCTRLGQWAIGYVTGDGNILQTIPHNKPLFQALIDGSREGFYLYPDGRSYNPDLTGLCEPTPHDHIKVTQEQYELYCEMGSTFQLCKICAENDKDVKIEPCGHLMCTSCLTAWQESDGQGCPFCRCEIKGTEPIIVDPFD

For the molecule `Cn1cnnc1[C@]1(c2cccc(NC(=O)c3cc(CNCC4CCCC4)cn4ccnc34)c2)C[C@H](C)C1` [Compound A42, 6-(((cyclopentylmethyl)amino)methyl)-N-(3-((1s, 3s)-3-methyl-1-(4-methyl-4H-1,2,4-triazol-3-yl)cyclobutyl)phenyl)imidazo[1,2-a]pyridine-8-carboxamide], the IC50 was 7.6 nM at Cbl (aa49-434) and 1.8 nM on Cbl-b (aa36-427) (setting [1]).

Consider `CC(C)CNCc1cc(C(=O)Nc2cncc([C@]3(c4nncn4C)C[C@@H](C)C3)c2)nc2c(Cl)c[nH]c12` [Compound B55, 3-chloro-7-((isobutylamino)methyl)-N-(5-((1s, 3s)-3-methyl-1-(4-methyl-4H-1,2,4-triazol-3-yl)cyclobutyl)pyridin-3-yl)-1H-pyrrolo[3,2-b]pyridine-5-carboxamide], for which the figures for the IC50 at Cbl (aa49-434) and at Cbl-b (aa36-427) were 14 nM and 1.6 nM, respectively.

`CC(C)CNCc1cc(C(=O)Nc2cccc([C@]3(c4nncn4C)C[C@@H](CC#N)C3)c2)nc2c1NCC2(C)C` [Compound C32, 3,3-dimethyl-7-{[(2-methylpropyl)amino]methyl}-N-{3-[(1s, 3s)-3-(cyanomethyl)-1-(4-methyl-1,2,4-triazol-3-yl)cyclobutyl]phenyl}-1H,2H-pyrrolo[3,2-b]pyridine-5-carboxamide]: the IC50 is 7.72 nM on Cbl (aa49-434) and 1.87 nM at Cbl-b (aa36-427) (setting [1]).

Regarding `C[C@H](NCc1cc(C(=O)Nc2cccc([C@]3(c4nncn4C)C[C@@H](CC#N)C3)c2)c2nccn2c1)C1CCCC1` [Compound A31, N-(3-((1s,3R)-3-(cyanomethyl)-1-(4-methyl-4H-1,2,4-triazol-3-yl)cyclobutyl)phenyl)-6-((((S)-1-cyclopentylethyl)amino)methyl)imidazo[1,2-a]pyridine-8-carboxamide], the IC50 at Cbl (aa49-434) is 1.3 nM; on Cbl-b (aa36-427) (setting [1]), 0.7 nM.

Consider `C[C@@H]1CN(Cc2cc(C(=O)Nc3cncc([C@]4(c5nncn5C)C[C@@H](C)C4)c3)c3nccn3c2)CC[C@@H]1F` [Compound A54, 6-(((3R,4S)-4-fluoro-3-methylpiperidin-1-yl)methyl)-N-(5-((1s,3S)-3-methyl-1-(4-methyl-4H-1,2,4-triazol-3-yl)cyclobutyl)pyridin-3-yl)imidazo[1,2-a]pyridine-8-carboxamide], for which the results for the IC50 on Cbl (aa49-434) and on Cbl-b (aa36-427) (setting [1]) were 6 nM and 1.9 nM, respectively.

Turning to `C[C@H]1CCCN(Cc2cc(C(=O)Nc3cccc(C4(Cc5nncn5C)COC4)c3)nn3cccc23)C1` [Compound B12, N-(3-{3-[(4-methyl-1,2,4-triazol-3-yl)methyl]oxetan-3-yl}phenyl)-4-{[(3S)-3-methylpiperidin-1-yl]methyl}pyrrolo[1,2-b]pyridazine-2-carboxamide], the IC50 on Cbl (aa49-434) is 51.6 nM; on Cbl-b (aa36-427) (setting [1]), 23.9 nM.

As for `Cc1cnc2c(C(=O)Nc3cncc([C@]4(c5nncn5C)C[C@@H](C)C4)c3)cc(CN[C@H]3C[C@@H](C)C3)cn12` [Compound A86, 3-methyl-N-(5-((1s, 3s)-3-methyl-1-(4-methyl-4H-1,2,4-triazol-3-yl)cyclobutyl)pyridin-3-yl)-6-((((1s, 3s)-3-methylcyclobutyl)amino)methyl)imidazo[1,2-a]pyridine-8-carboxamide], the IC50 at Cbl (aa49-434) turned out to be 13 nM; on Cbl-b (aa36-427) (setting [1]) it was 2.7 nM.

Regarding `Cn1cnnc1[C@]1(c2cccc(NC(=O)c3cc(CNC4(C)CC4)cc4c(Cl)cnn34)c2)C[C@H](C)C1` [Compound A96, 3-chloro-N-(3-((1s, 3s)-3-methyl-1-(4-methyl-4H-1,2,4-triazol-3-yl)cyclobutyl)phenyl)-5-(((1-methylcyclopropyl)amino)methyl)pyrazolo[1,5-a]pyridine-7-carboxamide], the IC50 is 3.2 nM at Cbl (aa49-434) and 0.5 nM at Cbl-b (aa36-427) (setting [1]).

Consider `CC(C)CNCc1cc(C(=O)Nc2cccc([C@]3(c4nncn4C)C[C@@H](C)C3)c2)c2nccn2c1` [Compound A18, 6-((isobutylamino)methyl)-N-(3-((1s, 3s)-3-methyl-1-(4-methyl-4H-1,2,4-triazol-3-yl)cyclobutyl)phenyl)imidazo[1,2-a]pyridine-8-carboxamide], for which the IC50 is 6 nM at Cbl (aa49-434) and 1.1 nM at Cbl-b (aa36-427) (setting [1]).

As to `Cn1cnnc1[C@]1(c2cccc(NC(=O)c3cc(CNC4(C)CCC4)cn4c(F)cnc34)c2)C[C@H](CC#N)C1` [Compound A61, N-(3-((1s, 3s)-3-(cyanomethyl)-1-(4-methyl-4H-1,2,4-triazol-3-yl)cyclobutyl)phenyl)-3-fluoro-6-(((1-methylcyclobutyl)amino)methyl)imidazo[1,2-a]pyridine-8-carboxamide], the IC50 at Cbl (aa49-434) stood at 11.1 nM; on Cbl-b (aa36-427) (setting [1]) it was 1.2 nM.

With `C[C@H](NCc1cc(C(=O)Nc2cccc([C@]3(c4nncn4C)C[C@@H](C)C3)c2)nc2c1OCC2(C)C)C1CC1` [Compound C35, 7-((((S)-1-cyclopropylethyl)amino)methyl)-3,3-dimethyl-N-(3-((1s,3R)-3-methyl-1-(4-methyl-4H-1,2,4-triazol-3-yl)cyclobutyl)phenyl)-2,3-dihydrofuro[3,2-b]pyridine-5-carboxamide], the IC50 on Cbl (aa49-434) was determined as 24.4 nM; at Cbl-b (aa36-427) (setting [1]) it was 3.8 nM.

With `Cc1cnc2c(C(=O)Nc3cncc([C@]4(c5nncn5C)C[C@@H](C)C4)c3)cc(CN3CC[C@H](F)[C@H](C)C3)cn12` [Compound A55, 6-{[(3R,4S)-4-fluoro-3-methylpiperidin-1-yl]methyl}-3-methyl-N-{5-[(1r, 3s)-3-methyl-1-(4-methyl-1,2,4-triazol-3-yl)cyclobutyl]pyridin-3-yl}imidazo[1,2-a]pyridine-8-carboxamide], the IC50 came out at 6.7 nM on Cbl (aa49-434) and 2.9 nM at Cbl-b (aa36-427) (setting [1]).

For the molecule `C[C@H](NCc1cc(C(=O)Nc2cncc([C@]3(c4nncn4C)C[C@@H](C)C3)c2)nc2sccc12)C1CCC1` [Compound B42, 4-({[(1S)-1-cyclobutylethyl]amino}methyl)-N-{5-[(1r, 3s)-3-methyl-1-(4-methyl-1,2,4-triazol-3-yl)cyclobutyl]pyridin-3-yl}thieno[2,3-b]pyridine-6-carboxamide], the figures for the IC50 on Cbl (aa49-434) and on Cbl-b (aa36-427) (setting [1]) were 4.7 nM and 2.1 nM, respectively.

As to `C[C@H](NCc1cc(C(=O)Nc2cccc([C@]3(c4nncn4C)C[C@@H](C)C3)c2)nc2c1OCC2(C)C)C1CCCC1` [Compound C34, 7-((((S)-1-cyclopentylethyl)amino)methyl)-3,3-dimethyl-N-(3-((1s,3R)-3-methyl-1-(4-methyl-4H-1,2,4-triazol-3-yl)cyclobutyl)phenyl)-2,3-dihydrofuro[3,2-b]pyridine-5-carboxamide], the IC50 at Cbl (aa49-434) turned out to be 5.1 nM; on Cbl-b (aa36-427) (setting [1]) it was 1.3 nM.

Consider `C[C@H](NCc1cc(C(=O)Nc2cccc([C@]3(c4nncn4C)C[C@@H](C)C3)c2)nc2c(F)c[nH]c12)C1CCC1` [Compound B38, 7-((((S)-1-cyclobutylethyl)amino)methyl)-3-fluoro-N-(3-((1s,3R)-3-methyl-1-(4-methyl-4H-1,2,4-triazol-3-yl)cyclobutyl)phenyl)-1H-pyrrolo[3,2-b]pyridine-5-carboxamide], for which the figures for the IC50 at Cbl (aa49-434) and at Cbl-b (aa36-427) (setting [1]) were 1.3 nM and 0.5 nM, respectively.

As to `Cn1cnnc1[C@]1(c2cccc(NC(=O)c3cc(CNC4(C)CC4)cn4ncnc34)c2)C[C@H](C)C1` [Compound A87, N-(3-((1s, 3s)-3-methyl-1-(4-methyl-4H-1,2,4-triazol-3-yl)cyclobutyl)phenyl)-6-(((1-methylcyclopropyl)amino)methyl)-[1,2,4]triazolo[1,5-a]pyridine-8-carboxamide], the results for the IC50 at Cbl (aa49-434) and on Cbl-b (aa36-427) (setting [1]) were 12 nM and 1.5 nM, respectively.

Consider `Cc1cnc2c(C(=O)Nc3cccc([C@]4(c5nncn5C)C[C@@H](C)C4)c3)cc(CNCC3CCC3)cn12` [Compound A53, 6-(((cyclobutylmethyl)amino)methyl)-3-methyl-N-(3-((1s, 3s)-3-methyl-1-(4-methyl-4H-1,2,4-triazol-3-yl)cyclobutyl)phenyl)imidazo[1,2-a]pyridine-8-carboxamide], for which the IC50 turned out to be 7.7 nM at Cbl (aa49-434) and 2 nM on Cbl-b (aa36-427) (setting [1]).

Turning to “N-(3-((1s,3R)-3-methyl-1-(4-methyl-4H-1,2,4-triazol-3-yl)cyclobutyl)phenyl)-7′-(((S)-3-methylpiperidin-1-yl)methyl)-1′,2′-dihydrospiro[cyclopropane-1,3′-pyrrolo[3,2-b]pyridine]-5′-carboxamide [Compound C51]”, the results for the IC50 on Cbl (aa49-434) and at Cbl-b (aa36-427) (setting [1]) were 4.9 nM and 1.5 nM, respectively.

Consider `Cn1cnnc1[C@]1(c2cccc(NC(=O)c3cc(CNC4(C)CC4)c4c(n3)C(C)(C)CC4)c2)C[C@H](CC#N)C1` [Compound C24, N-(3-((1s, 3s)-3-(cyanomethyl)-1-(4-methyl-4H-1,2,4-triazol-3-yl)cyclobutyl)phenyl)-7,7-dimethyl-4(((1methylcyclopropyl)amino)methyl)-6,7-dihydro-5H-cyclopenta[b]pyridine-2-carboxamide], for which the IC50 on Cbl (aa49-434) is 10.4 nM; at Cbl-b (aa36-427) (setting [1]), 1.6 nM.
